In patent US20250073292A1, “PELARGONIUM GRAVEOLENS EXTRACT FOR THE TREATMENT OF TRAUMATIC BRAIN INJURIES” (priority 2021, published 2025):

Tests used:
acetyl choline esterase = acetyl choline esterase (Homo sapiens, UniProt P22303); conditions: WO 2013/168090 [10]; cited from earlier work
[1] = system: mice subjected to closed head injury (CHI); assay: Barnes maze (BM) acquisition, recall and exploration strategies after CHI; assay type: in vivo; conditions: 2 weeks after the trauma, 3 days after the last treatment; 125 mg/kg or 50 mg/kg (both doses), gavage, 9 treatments
Method: At 1 h after CHI, the NSS is evaluated.
• The BM test is based on the instinct of the mouse to hide when exposed to environmental disturbances and is used to test spatial learning and memory. The maze consists of an elevated circular platform with holes in the perimeter and a small dark hidden goal box. Bright light and aversive noise (85 dB) force the animals to escape from the open platform surface to find the hole under which the dark chamber (21×22×21 cm), “target goal box,” is located. Visual cues of different colors and shapes are placed around the room. The mouse was placed under a cylindrical black start chamber at the center of the maze. […] For the probe trial, the latency to reaching the escape box first are recorded. • The Barnes maze test was performed: • 1) Between days 14-17 (2 weeks) plus a recall test on days 18 and 25 after injury, for a total round of 6. • 2) Between days 54-57 (2 months) plus a recall test on days 58 and 65 after injury for a total round of 2. • 3) Between days 183-186 (6 months) plus a recall test on days 187 and 194 after injury for a total round of 2. • 4) Between days 277-280 (9 months) plus a recall test on days 281 and 288 after injury for a total round of 1. • The captured videos were analyzed with Ethovision XP10 software (Noldus, The Netherlands) for later evaluation of the strategies used to locate the target box. […]

Chain of acetyl choline esterase (P22303 32-614): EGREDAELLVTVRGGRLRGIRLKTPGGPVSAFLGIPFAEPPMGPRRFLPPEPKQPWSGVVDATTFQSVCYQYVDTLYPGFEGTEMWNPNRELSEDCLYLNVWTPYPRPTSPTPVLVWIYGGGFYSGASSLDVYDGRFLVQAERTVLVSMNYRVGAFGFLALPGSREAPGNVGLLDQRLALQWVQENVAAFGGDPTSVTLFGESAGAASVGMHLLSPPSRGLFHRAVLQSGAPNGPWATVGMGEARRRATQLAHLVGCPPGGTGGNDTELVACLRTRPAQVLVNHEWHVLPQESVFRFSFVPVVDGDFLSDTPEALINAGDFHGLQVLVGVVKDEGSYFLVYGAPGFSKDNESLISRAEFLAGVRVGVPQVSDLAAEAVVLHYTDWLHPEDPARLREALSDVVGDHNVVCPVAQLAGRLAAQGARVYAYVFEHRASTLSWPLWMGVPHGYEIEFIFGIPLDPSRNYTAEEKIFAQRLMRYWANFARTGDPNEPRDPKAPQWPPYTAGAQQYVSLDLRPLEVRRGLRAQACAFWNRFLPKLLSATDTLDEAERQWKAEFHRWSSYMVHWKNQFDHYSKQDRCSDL

Question: Which “Activity of the enzyme acetyl choline esterase in vitro” value (acetyl choline esterase) does the source give for `CC(C)=CCC[C@H](C)CCO` [(S) (−) citronellol] here?
Answer: inhibits

Question: Which “Barnes maze acquisition, learning curve” value [1] does the source give for `CC(C)=CCCC(C)CCO` (centres unmarked) [Citronellol, citronellol] here?
Answer: A significant improvement in the learning curve
